Experimental data as given in patent US6737383B1, “Herbicidal oxadiazolidines” (priority 1999, dated 2004).

Columns and labels:
pigweed = experiment: Test B pre/postemergence pigweed; type: in vivo, Amaranthus retroflexus
How it was run: (§1)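 Test chemicals in a non-phytotoxic solvent mixture with surfactant were sprayed preemergence onto planted seeds and postemergence onto plants 2 to 18 cm tall (1- to 4-leaf stage). After twelve to sixteen days in a greenhouse, injury was visually rated against untreated controls from 0 (no effect) to 10 (complete control).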

bedstraw = experiment: Test B pre/postemergence bedstraw; type: in vivo, Galium aparine
How it was run: as §1

purple nutsedge = experiment: Test B pre/postemergence purple nutsedge; type: in vivo, Cyperus rotundus
How it was run: as §1

giant foxtail = experiment: Test B pre/postemergence giant foxtail; type: in vivo, Setaria faberii
How it was run: as §1

surinam grass = experiment: Test B pre/postemergence surinam grass; type: in vivo, Brachiaria decumbens
How it was run: as §1

wheat = experiment: Test B pre/postemergence wheat; type: in vivo, Triticum aestivum
How it was run: as §1

blackgrass = experiment: Test B pre/postemergence blackgrass; type: in vivo, Alopecurus myosuroides
How it was run: as §1

corn = experiment: Test B pre/postemergence corn; type: in vivo, Zea mays
How it was run: as §1

rape = experiment: Test B pre/postemergence rape; type: in vivo, Brassica napus
How it was run: as §1

cocklebur = experiment: Test B pre/postemergence cocklebur; type: in vivo, Xanthium strumarium
How it was run: as §1

sugar beet = experiment: Test B pre/postemergence sugar beet; type: in vivo, Beta vulgaris
How it was run: as §1

wild oat = experiment: Test B pre/postemergence wild oat; type: in vivo, Avena fatua
How it was run: as §1

soybean = experiment: Test B pre/postemergence soybean; type: in vivo, Glycine max
How it was run: as §1

crabgrass = experiment: Test B pre/postemergence crabgrass; type: in vivo, Digitaria sanguinalis
How it was run: as §1

morningglory = experiment: Test B pre/postemergence morningglory; type: in vivo, Ipomoea hederacea
How it was run: as §1

velvetleaf = experiment: Test B pre/postemergence velvetleaf; type: in vivo, Abutilon theophrasti
How it was run: as §1

[1] = Postemergence, Rate 62 g/ha, scale 0 to 10, 0 is no effect, 10 is complete control
[2] = Postemergence, Rate 125 g/ha, scale of 0 to 10 where 0 is no effect and 10 is complete control
[3] = Preemergence, Rate 125 g/ha, scale of 0 to 10 where 0 is no effect and 10 is complete control
[4] = Preemergence, Rate 250 g/ha, scale 0 (no effect) to 10 (complete control)
[5] = Rate 62 g/ha, Preemergence, scale 0 to 10
[6] = Rate 250 g/ha, Postemergence, scale 0 to 10, 0 is no effect, 10 is complete control
[7] = Rate 500 g/ha, Postemergence, scale 0 to 10, 0 is no effect, 10 is complete control
[8] = Rate 500 g/ha, Preemergence, scale 0 to 10 (0 no effect, 10 complete control)

CC(C)N(C(=O)n1oc(=O)n(CC(F)F)c1=O)c1ccccc1 [Compound 746]
3: Plant response rating, Nutsedge (purple nutsedge; [3]) | Plant response rating, B. signalgrass (surinam grass; [1]) | Plant response rating, Corn (corn; [3]) | Corn plant response rating (corn; [4]) | Soybean plant response rating (soybean; [2])
4: Nutsedge plant response rating (purple nutsedge; [7]) | B. signalgrass plant response rating (surinam grass; [2]) | Wheat plant response rating (wheat; [2]) | Corn plant response rating (corn; [6]) | Corn plant response rating (corn; [8]) | Plant response rating, Rape (rape; [1]) | Rape plant response rating (rape; [2]) | Cocklebur plant response rating (cocklebur; [7]) | Cocklebur plant response rating (cocklebur; [8]) | Sugarbeets plant response rating (sugar beet; [6]) | Sugarbeets plant response rating (sugar beet; [7]) | Soybean plant response rating (soybean; [6]) | Plant response rating, Morningglory (morningglory; [1]) | Plant response rating, Morningglory (morningglory; [3]) | Velvetleaf plant response rating (velvetleaf; [5])
10: Plant response rating, Redroot pigweed (pigweed; [3]) | Redroot pigweed plant response rating (pigweed; [4]) | Redroot pigweed plant response rating (pigweed; [5]) | Plant response rating, Giant foxtail (giant foxtail; [3]) | Giant foxtail plant response rating (giant foxtail; [4]) | Giant foxtail plant response rating (giant foxtail; [5]) | Giant foxtail plant response rating (giant foxtail; [8]) | Blackgrass plant response rating (blackgrass; [4]) | Plant response rating, Wild oats (wild oat; [3]) | Wild oats plant response rating (wild oat; [4]) | Plant response rating, Crabgrass (crabgrass; [3]) | Crabgrass plant response rating (crabgrass; [4]) | Crabgrass plant response rating (crabgrass; [7]) | Crabgrass plant response rating (crabgrass; [8]) | Morningglory plant response rating (morningglory; [6]) | Morningglory plant response rating (morningglory; [7])
0: Plant response rating, Nutsedge (purple nutsedge; [1]) | Nutsedge plant response rating (purple nutsedge; [2]) | Nutsedge plant response rating (purple nutsedge; [5]) | Plant response rating, Wheat (wheat; [1]) | Plant response rating, Corn (corn; [1]) | Corn plant response rating (corn; [2]) | Corn plant response rating (corn; [5]) | Plant response rating, Cocklebur (cocklebur; [1]) | Plant response rating, Cocklebur (cocklebur; [3]) | Cocklebur plant response rating (cocklebur; [4]) | Plant response rating, Sugarbeets (sugar beet; [1]) | Sugarbeets plant response rating (sugar beet; [2]) | Plant response rating, Wild oats (wild oat; [1]) | Plant response rating, Soybean (soybean; [3]) | Soybean plant response rating (soybean; [5]) | Morningglory plant response rating (morningglory; [5])
2: Nutsedge plant response rating (purple nutsedge; [6]) | Rape plant response rating (rape; [5]) | Cocklebur plant response rating (cocklebur; [2]) | Cocklebur plant response rating (cocklebur; [6]) | Wild oats plant response rating (wild oat; [2]) | Plant response rating, Soybean (soybean; [1]) | Plant response rating, Velvetleaf (velvetleaf; [1])
7: Bedstraw plant response rating (bedstraw; [2]) | B. signalgrass plant response rating (surinam grass; Preemergence, Rate 62 g/ha, scale of 0 to 10 where 0 is no effect and 10 is complete control) | Plant response rating, Wheat (wheat; [3]) | Blackgrass plant response rating (blackgrass; [2]) | Rape plant response rating (rape; [6]) | Rape plant response rating (rape; [7]) | Plant response rating, Sugarbeets (sugar beet; [3]) | Sugarbeets plant response rating (sugar beet; [4]) | Wild oats plant response rating (wild oat; [5]) | Wild oats plant response rating (wild oat; [7]) | Plant response rating, Crabgrass (crabgrass; [1]) | Velvetleaf plant response rating (velvetleaf; [4]) | Velvetleaf plant response rating (velvetleaf; [7])
6: Plant response rating, Redroot pigweed (pigweed; [1]) | Plant response rating, Giant foxtail (giant foxtail; [1]) | B. signalgrass plant response rating (surinam grass; [6]) | Wheat plant response rating (wheat; [5]) | Wheat plant response rating (wheat; [7]) | Wild oats plant response rating (wild oat; [6]) | Soybean plant response rating (soybean; [7]) | Morningglory plant response rating (morningglory; [4]) | Velvetleaf plant response rating (velvetleaf; [2]) | Plant response rating, Velvetleaf (velvetleaf; [3]) | Velvetleaf plant response rating (velvetleaf; [6])
9: Redroot pigweed plant response rating (pigweed; [7]) | Bedstraw plant response rating (bedstraw; [7]) | Giant foxtail plant response rating (giant foxtail; [6]) | Giant foxtail plant response rating (giant foxtail; [7]) | Plant response rating, B. signalgrass (surinam grass; [3]) | B. signalgrass plant response rating (surinam grass; [4]) | Plant response rating, Blackgrass (blackgrass; [3]) | Blackgrass plant response rating (blackgrass; [5]) | Plant response rating, Rape (rape; [3]) | Rape plant response rating (rape; [4]) | Crabgrass plant response rating (crabgrass; [2]) | Crabgrass plant response rating (crabgrass; [5]) | Crabgrass plant response rating (crabgrass; [6])
5: Redroot pigweed plant response rating (pigweed; [2]) | Nutsedge plant response rating (purple nutsedge; [8]) | Plant response rating, Blackgrass (blackgrass; [1]) | Corn plant response rating (corn; [7]) | Sugarbeets plant response rating (sugar beet; [5]) | Soybean plant response rating (soybean; [4]) | Soybean plant response rating (soybean; [8])
8: Redroot pigweed plant response rating (pigweed; [6]) | Bedstraw plant response rating (bedstraw; [5]) | Bedstraw plant response rating (bedstraw; [6]) | Giant foxtail plant response rating (giant foxtail; [2]) | B. signalgrass plant response rating (surinam grass; [7]) | Wheat plant response rating (wheat; [4]) | Blackgrass plant response rating (blackgrass; [6]) | Blackgrass plant response rating (blackgrass; [7]) | Morningglory plant response rating (morningglory; [2]) | Morningglory plant response rating (morningglory; [8]) | Velvetleaf plant response rating (velvetleaf; [8])
